Two compounds from patent US7863014B2 (priority 2001, dated 2011) can be followed below.

The target of assay [1] is T1, Ppnk (Mycobacterium tuberculosis, UniProt P9WHV7). Briefly: Effect of NADP and ADP on NADP-producing activity of purified Ppnk. Type of assay: biochemical, M. tuberculosis. Particulars: various levels of NADP or ADP. The procedure: The NADP-producing activity was assayed in the presence of various levels of NADP (solid circles) or ADP (open circles).
A reaction for producing NADP was performed in a reaction mixture solution (4.0 ml) at 37° C. with shaking. […] After the reaction for 1 hour, 10 μl of the reaction mixture was collected and enzymatically assayed for NADP using isocitrate dehydrogenase (Sigma-Aldrich Japan, Tokyo, Japan). The activity was expressed in μmol/g cells/hour.

Assay [2] concerns the target T1, Ppnk.

Molecules are shown by their SMILES.

T1 sequence (P9WHV7 whole entry, looked up): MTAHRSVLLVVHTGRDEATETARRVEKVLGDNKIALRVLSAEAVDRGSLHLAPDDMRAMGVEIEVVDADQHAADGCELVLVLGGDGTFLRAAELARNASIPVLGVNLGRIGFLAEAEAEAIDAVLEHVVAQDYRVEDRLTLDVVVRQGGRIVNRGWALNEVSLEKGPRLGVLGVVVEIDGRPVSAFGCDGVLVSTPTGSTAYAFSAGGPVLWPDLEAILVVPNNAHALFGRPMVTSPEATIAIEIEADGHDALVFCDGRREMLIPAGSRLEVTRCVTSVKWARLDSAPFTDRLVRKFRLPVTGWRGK

As to `Nc1ncnc2c1ncn2[C@@H]1O[C@H](COP(=O)(O)OP(=O)(O)O)[C@@H](O)[C@H]1O` [ADP], the “inhibition of polyphosphate-dependent NAD kinase activity of Ppnk” value in assay [1] was “not inhibited”.
`[Cl-].[Cl-].[Mg+2]` [MgCl2]: in assay [2], the “Mg2+ concentration giving highest activity” value was 100 mM and the “effectiveness among metal ions (Mg2+, Mn2+, Ca2+)” value is reported as “most effective”.
